Experimental data reported in ChEMBL document CHEMBL1201862, “PubChem BioAssay data set” (2004).
Active and inactive are the calls of the source.

What was measured:
[1] = target: T1, Probable nicotinate-nucleotide adenylyltransferase (Staphylococcus aureus (strain N315), UniProt P65502); format: functional, Staphylococcus aureus subsp. aureus N315;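 as to IC50 Mean: confirmatory dose-response retesting of NadD inhibitor hits first found in an ultra-high-throughput screen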
[2] = target: T1, Probable nicotinate-nucleotide adenylyltransferase; format: functional, Staphylococcus aureus subsp. aureus N315; conditions: read-out: IC50_Mean
[3] = target: Photoreceptor-specific nuclear receptor (Homo sapiens, UniProt Q9Y5X4); format: functional, cell-based;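 also: CHO-S cells with Gal4-NCOR and VP16-NR2E3 two-hybrid luciferase reporter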
[4] = target: T2, Low molecular weight phosphotyrosine protein phosphatase (Homo sapiens, UniProt P24666); format: functional; conditions: read-out: IC50_Mean
T2 sequence (P24666 whole entry): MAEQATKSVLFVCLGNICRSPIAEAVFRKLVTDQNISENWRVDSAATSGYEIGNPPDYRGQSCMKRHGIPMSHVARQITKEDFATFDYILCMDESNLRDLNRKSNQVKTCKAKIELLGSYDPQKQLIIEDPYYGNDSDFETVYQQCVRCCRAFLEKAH

[5] = target: T2, Low molecular weight phosphotyrosine protein phosphatase; format: functional; conditions: read-out: IC50_Mean; remark: listed apart in the source
[6] = target: T3, Rac GTPase-activating protein 1 (Homo sapiens, UniProt Q9H0H5); test: blockers of MgcRacGAP-driven Rac1 GTP hydrolysis – biochemical, ADP Hunter fluorescence, primary and confirmatory, confirmation (AID 624330); format: functional
T3 sequence (Q9H0H5 whole entry): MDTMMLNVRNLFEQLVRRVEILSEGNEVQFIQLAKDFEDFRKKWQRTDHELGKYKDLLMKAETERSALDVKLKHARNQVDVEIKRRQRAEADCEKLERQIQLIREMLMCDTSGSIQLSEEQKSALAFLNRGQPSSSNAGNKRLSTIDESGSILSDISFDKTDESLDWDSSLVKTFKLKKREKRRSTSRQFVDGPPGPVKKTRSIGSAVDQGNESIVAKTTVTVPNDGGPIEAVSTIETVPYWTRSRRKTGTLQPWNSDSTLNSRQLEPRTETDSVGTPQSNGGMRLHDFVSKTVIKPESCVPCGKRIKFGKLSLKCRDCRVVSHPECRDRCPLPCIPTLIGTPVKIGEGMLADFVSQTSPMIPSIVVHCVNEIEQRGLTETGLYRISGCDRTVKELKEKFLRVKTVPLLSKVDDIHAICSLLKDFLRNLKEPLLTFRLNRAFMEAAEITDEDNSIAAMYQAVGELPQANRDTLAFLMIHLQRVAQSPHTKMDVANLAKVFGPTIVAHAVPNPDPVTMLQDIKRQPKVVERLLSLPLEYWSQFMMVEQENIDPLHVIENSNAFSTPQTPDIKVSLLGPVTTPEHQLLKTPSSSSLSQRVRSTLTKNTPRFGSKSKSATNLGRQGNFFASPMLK

[7] = target: T4, Corticotropin-releasing factor receptor 2/Corticotropin-releasing factor-binding protein (Homo sapiens, UniProt P24387+Q13324); test: Dose Response confirmation of uHTS hits for small molecule antagonists of the CRF-binding protein and CRF-R2 receptor complex.; format: functional; conditions: read-out: IC50_Mean
T4 sequence (Q13324 whole entry): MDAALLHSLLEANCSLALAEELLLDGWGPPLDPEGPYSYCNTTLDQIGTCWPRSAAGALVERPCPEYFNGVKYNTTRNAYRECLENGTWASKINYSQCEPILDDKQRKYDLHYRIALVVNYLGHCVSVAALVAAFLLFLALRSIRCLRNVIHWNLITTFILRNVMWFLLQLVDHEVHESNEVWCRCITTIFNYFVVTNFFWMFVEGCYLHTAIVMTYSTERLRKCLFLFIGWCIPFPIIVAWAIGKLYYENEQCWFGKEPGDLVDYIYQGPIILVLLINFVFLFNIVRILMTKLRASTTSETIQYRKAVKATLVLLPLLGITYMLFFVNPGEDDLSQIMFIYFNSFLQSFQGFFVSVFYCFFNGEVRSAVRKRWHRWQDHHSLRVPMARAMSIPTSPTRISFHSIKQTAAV
T4 sequence (P24387 whole entry): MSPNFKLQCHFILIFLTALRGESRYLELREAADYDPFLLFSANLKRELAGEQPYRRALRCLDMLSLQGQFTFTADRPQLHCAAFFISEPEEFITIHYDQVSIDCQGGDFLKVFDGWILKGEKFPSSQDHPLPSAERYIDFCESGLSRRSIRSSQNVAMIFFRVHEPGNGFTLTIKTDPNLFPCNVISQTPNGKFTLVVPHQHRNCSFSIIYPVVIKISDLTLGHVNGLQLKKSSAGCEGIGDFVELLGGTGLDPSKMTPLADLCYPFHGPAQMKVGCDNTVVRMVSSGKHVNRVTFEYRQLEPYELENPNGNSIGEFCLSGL

[8] = target: T4, Corticotropin-releasing factor receptor 2/Corticotropin-releasing factor-binding protein; test: activators of CRF receptor 2 with binding protein – uHTS hits, confirmation (AID 602473); format: functional; conditions: read-out: EC50_Mean
[9] = blockers of CRF-binding protein–CRF-R2 complex – cell-based, uHTS hits, 384-well, dose response (AID 651639); format: functional, Homo sapiens; conditions: read-out: IC50_Mean
[10] = target: T5, Short transient receptor potential channel 4 (Mus musculus, UniProt Q9QUQ5); test: block of DAMGO-driven TRPC4 calcium entry – cell-based, HEK293 TRPC4/mu-opioid, Fluo-4 calcium, dose response (AID 434942); format: functional;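 also: potency of inhibitors blocking the TRPC4 calcium response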
T5 sequence (Q9QUQ5 whole entry): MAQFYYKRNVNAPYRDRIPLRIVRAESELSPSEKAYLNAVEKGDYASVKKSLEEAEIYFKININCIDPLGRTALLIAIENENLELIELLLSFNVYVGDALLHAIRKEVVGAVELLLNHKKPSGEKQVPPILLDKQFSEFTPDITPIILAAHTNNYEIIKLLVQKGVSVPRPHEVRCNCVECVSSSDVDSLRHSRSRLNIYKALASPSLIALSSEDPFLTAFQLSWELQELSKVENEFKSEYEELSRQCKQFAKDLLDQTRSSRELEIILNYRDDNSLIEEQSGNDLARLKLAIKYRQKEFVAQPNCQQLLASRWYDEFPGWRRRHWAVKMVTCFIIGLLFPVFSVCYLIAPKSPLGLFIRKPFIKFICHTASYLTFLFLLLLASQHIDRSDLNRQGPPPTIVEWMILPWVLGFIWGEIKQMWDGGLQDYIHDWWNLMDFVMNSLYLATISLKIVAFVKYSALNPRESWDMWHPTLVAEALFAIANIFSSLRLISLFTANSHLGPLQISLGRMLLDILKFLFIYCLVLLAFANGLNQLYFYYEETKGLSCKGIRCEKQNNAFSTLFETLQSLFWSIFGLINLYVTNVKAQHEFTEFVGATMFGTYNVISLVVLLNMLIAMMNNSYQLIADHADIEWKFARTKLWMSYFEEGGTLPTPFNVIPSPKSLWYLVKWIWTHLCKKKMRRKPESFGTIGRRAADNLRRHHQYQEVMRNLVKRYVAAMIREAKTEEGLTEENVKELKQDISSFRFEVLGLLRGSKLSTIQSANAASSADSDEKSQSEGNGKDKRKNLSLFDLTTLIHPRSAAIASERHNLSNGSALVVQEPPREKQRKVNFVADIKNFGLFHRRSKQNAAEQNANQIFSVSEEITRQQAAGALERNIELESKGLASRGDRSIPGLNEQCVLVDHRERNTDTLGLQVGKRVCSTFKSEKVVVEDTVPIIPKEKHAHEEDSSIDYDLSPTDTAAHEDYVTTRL

[11] = target: Nuclear receptor subfamily 5 group A member 2 (Homo sapiens, UniProt O00482); format: functional, cell-based;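 also: HEK293T cells transfected with LRH-1 and a StAR promoter luciferase reporter; potency for inhibitors that lower LRH-1 driven reporter light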
Steroidogenic factor 1 = Steroidogenic factor 1 (Homo sapiens, UniProt Q13285); test: Counterscreen for inverse agonists of the liver receptor homolog-1 (LRH-1; NR5A2): Luminescence-based cell-based high throughput dose response assay to identify inverse agonists of the Steroidogenic Factor 1 Nuclear Receptor (SF1; NR5A1).; format: functional
[12] = nonselective StAR promoter luciferase inhibitors – cell-based, luminescence, luciferase reporter, counter-screen for LRH-1 inverse agonist project, dose response (AID 651969); format: functional
[13] = viability of uninfected HEp-2 cells – cell-based, HTS, cytotoxicity control for RSV inhibitor project, dose response (AID 2410); format: functional; conditions: human respiratory syncytial virus
[14] = Counterscreen for inhibitors of Trypanosoma brucei methionyl tRNA synthetase (MetRS): Luminescence-based cell-based high throughput dose response assay to identify compounds that are cytotoxic to Jurkat human T lymphocyte cells.; format: functional
[15] = target: T6, Methionyl-tRNA synthetase, putative (Trypanosoma brucei brucei, UniProt Q38C91); format: functional, Trypanosoma brucei brucei strain 927/4 GUTat10.1
T6 sequence (Q38C91 whole entry): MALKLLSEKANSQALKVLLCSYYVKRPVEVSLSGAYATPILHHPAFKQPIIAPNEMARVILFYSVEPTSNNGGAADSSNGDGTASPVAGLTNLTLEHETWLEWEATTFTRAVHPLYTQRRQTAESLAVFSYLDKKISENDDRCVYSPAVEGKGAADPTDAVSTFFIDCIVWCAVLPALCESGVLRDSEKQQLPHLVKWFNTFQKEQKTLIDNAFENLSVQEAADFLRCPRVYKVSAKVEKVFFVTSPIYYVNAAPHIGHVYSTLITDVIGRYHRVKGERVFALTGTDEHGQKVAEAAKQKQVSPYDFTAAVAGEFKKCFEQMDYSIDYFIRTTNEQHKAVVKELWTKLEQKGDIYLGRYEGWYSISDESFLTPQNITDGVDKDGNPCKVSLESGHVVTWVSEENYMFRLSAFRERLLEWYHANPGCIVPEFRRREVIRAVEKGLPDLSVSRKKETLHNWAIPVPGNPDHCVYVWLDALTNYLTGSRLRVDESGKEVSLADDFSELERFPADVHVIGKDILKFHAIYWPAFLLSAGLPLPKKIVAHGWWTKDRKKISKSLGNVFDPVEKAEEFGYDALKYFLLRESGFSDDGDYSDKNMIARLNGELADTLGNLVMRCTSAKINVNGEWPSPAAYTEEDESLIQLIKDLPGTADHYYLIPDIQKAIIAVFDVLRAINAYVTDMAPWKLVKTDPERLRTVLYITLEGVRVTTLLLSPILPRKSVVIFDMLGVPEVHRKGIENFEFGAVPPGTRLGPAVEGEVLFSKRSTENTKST

[16] = target: T6, Methionyl-tRNA synthetase, putative; format: functional, Trypanosoma brucei brucei strain 927/4 GUTat10.1; remark: listed apart in the source
[17] = target: T7, ATP-dependent translocase ABCB1 (Homo sapiens, UniProt P08183); test: P-gp JC-1 efflux blockade concentration-response – Jurkat-DNR cells, flow cytometry, set 2, dose response (AID 504569); format: functional; conditions: read-out: EC50_MICROM_;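 also: potency of pump inhibitors that raise cellular JC-1 green fluorescence up to the nicardipine level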
[18] = target: Heat shock protein HSP 90-alpha (Homo sapiens, UniProt P07900); format: functional, organism-based
[19] = target: T7, ATP-dependent translocase ABCB1; test: inhibition of BCRP-mediated JC-1 efflux – Ig-MXP3 cells, flow cytometry, set 2, dose response (AID 504566); format: functional; conditions: read-out: EC50_MICROM_;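 also: flow cytometry median green fluorescence of retained JC-1 dye; potency of efflux pump inhibition measured as rising substrate retention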

T1 sequence (P65502 whole entry): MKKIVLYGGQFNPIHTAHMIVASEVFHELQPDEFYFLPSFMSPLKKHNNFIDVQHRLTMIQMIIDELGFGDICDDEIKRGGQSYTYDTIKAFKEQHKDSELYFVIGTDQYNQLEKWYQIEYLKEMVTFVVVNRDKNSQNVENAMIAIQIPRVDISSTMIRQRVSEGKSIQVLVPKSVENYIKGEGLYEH
T7 sequence (P08183 whole entry): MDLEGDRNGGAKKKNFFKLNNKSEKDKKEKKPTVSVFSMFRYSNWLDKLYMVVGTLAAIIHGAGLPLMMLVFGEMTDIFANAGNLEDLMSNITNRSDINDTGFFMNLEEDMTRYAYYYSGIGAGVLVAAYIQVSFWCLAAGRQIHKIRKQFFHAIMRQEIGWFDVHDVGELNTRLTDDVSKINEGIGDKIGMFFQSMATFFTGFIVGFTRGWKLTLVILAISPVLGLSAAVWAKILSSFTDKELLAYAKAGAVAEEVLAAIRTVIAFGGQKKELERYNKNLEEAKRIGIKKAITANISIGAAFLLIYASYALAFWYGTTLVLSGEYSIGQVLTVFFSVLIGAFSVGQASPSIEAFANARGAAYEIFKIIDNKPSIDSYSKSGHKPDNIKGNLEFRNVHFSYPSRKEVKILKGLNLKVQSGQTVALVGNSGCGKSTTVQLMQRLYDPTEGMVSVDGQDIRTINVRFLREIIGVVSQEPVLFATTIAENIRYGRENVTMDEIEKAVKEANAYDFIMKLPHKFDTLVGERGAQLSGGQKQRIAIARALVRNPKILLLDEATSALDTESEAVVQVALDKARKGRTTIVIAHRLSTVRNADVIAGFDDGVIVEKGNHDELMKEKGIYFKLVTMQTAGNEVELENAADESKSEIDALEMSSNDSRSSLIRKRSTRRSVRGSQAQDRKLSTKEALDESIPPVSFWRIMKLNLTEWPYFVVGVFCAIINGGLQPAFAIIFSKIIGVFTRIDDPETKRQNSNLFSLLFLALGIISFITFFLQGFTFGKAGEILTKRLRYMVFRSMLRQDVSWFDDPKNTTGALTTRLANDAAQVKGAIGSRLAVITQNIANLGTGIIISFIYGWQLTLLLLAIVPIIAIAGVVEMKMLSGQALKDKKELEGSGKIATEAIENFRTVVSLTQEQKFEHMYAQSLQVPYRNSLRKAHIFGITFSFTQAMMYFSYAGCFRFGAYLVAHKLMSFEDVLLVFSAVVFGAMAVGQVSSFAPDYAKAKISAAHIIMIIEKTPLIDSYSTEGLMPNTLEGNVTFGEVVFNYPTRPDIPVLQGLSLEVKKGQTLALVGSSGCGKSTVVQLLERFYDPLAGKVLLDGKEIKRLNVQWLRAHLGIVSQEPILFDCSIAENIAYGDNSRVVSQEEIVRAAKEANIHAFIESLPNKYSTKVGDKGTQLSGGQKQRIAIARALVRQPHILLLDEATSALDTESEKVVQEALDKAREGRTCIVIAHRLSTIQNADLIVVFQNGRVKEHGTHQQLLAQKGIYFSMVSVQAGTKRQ
Sequence of Steroidogenic factor 1 (Q13285 whole entry): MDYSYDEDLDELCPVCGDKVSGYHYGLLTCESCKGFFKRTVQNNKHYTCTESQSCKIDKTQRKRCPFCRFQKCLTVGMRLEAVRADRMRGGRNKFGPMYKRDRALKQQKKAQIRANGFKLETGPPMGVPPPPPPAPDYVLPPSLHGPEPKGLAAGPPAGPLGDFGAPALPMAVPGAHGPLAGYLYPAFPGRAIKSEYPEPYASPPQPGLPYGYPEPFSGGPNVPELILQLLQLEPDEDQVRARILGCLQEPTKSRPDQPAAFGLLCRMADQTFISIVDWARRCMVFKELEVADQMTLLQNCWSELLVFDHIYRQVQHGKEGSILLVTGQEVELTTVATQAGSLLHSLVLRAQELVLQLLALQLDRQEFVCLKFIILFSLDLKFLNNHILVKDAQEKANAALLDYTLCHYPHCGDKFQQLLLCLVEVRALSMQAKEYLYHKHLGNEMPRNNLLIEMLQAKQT
Sequence of Photoreceptor-specific nuclear receptor (Q9Y5X4 whole entry, the tested form may be a part): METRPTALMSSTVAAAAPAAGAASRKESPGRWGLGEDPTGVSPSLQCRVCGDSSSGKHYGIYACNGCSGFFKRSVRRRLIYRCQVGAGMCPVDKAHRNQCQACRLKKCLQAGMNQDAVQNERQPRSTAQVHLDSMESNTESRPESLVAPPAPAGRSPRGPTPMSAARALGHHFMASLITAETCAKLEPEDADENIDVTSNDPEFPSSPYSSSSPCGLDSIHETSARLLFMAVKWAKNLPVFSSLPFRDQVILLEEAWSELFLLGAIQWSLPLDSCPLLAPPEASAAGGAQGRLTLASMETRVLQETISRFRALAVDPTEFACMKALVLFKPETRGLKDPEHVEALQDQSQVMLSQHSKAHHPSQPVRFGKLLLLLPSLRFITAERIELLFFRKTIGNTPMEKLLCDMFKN
Sequence of Nuclear receptor subfamily 5 group A member 2 (O00482 whole entry): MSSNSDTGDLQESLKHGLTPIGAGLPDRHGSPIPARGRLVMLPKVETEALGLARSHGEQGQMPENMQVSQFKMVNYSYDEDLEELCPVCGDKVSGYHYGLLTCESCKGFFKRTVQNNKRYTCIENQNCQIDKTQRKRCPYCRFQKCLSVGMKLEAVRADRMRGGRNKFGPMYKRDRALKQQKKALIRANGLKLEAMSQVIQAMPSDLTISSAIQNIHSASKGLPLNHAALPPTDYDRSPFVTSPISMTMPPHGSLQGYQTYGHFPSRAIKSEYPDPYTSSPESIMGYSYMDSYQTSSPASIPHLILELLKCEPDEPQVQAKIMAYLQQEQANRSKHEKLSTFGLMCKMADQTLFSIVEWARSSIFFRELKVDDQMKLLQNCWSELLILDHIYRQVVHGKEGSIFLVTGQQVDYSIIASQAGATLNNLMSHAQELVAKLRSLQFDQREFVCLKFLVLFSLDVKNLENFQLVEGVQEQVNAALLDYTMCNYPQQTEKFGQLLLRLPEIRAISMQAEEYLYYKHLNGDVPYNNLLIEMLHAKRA

With COC(=O)[C@H](CC(C)C)N1Cc2cc(OC)cc(OC)c2-c2ccccc2S1(=O)=O as the molecule, how does the IC50 [1] read?
Its IC50 is 23.5 µM (active).

What about the IC50 [2] of the same molecule?
The IC50 was 55.6 µM (active).

With Cc1ccc(NC(=O)CNC(=O)c2cccc(C)c2)nc1 as the molecule, how does the IC50 [3] read?
Its IC50 is 3.75 µM (active).

For CCC(C)Nc1nc(-c2ccc3c(c2)NC(=O)CO3)cs1 (stereo not drawn), which IC50 [4] is on record?
The IC50 was 10.5 µM (active).

And the IC50 [5]?
The IC50 was 63.3 µM (inactive).

Which results are given for COc1ccc(C)cc1NCc1cccc(OC)c1OC?
IC50 [6]: 41.7 µM (active); IC50 [7]: 39.6 µM (active); EC50 [8]: > 53 µM (inactive); IC50 [9]: > 20 µM (inactive)

Which IC50 [4] does the source give for Cc1cccc(-c2nc(NCCCN3CCOCC3)c3ccccc3n2)c1 here?
Its IC50 is 22.6 µM (inactive).

What about the IC50 [5] of the same molecule?
Its IC50 is 7.12 µM (active).

What does the source list for COc1ccc(/C=C2\SC(=S)N(C(Cc3ccccc3)C(=O)O)C2=O)cc1 (stereo not drawn)?
IC50 [7]: 0.545 µM (active); EC50 [10]: 4.73 µM (active); EC50 [8]: 34.8 µM (active); IC50 [9]: > 20 µM (inactive)

For CC(=O)Nc1ncc(Cc2cc(Cl)ccc2Cl)s1, which IC50 [11] is on record?
The IC50 was 1.33 µM (active).

What about the IC50 (Steroidogenic factor 1) of the same molecule?
Its IC50 is 2.14 µM (active).

What about the IC50 [12] of the same molecule?
Its IC50 is 35.9 µM (inactive).

Which CC50 [13] does the source give for O=C(NCc1nc2ccccc2[nH]1)C1=C[C@H](c2csc3ccccc23)C[C@H](OCc2ccc(CO)cc2)O1 here?
Its CC50 is 41.1 µM (active).

And the IC50 [14]?
Its IC50 is 47.7 µM (inactive).

What about the IC50 [15] of the same molecule?
Its IC50 is 1.58 µM (active).

And the IC50 [16]?
Its IC50 is 3.54 µM (active).

Which results are given for O=C(CSc1nncc(O)n1)Nc1cccc([N+](=O)[O-])c1?
IC50 [11]: 3.98 µM (active); IC50 (Steroidogenic factor 1): 3.98 µM (active); IC50 [12]: 13.7 µM (inactive)

Which IC50 [3] does the source give for O=S(=O)(NC1CCCC1)c1ccc(S(=O)(=O)N2CCc3ccccc32)cc1 here?
The IC50 was 2.47 µM (active).

What does the source list for Cc1cc(N2CCN(C(=O)c3ccco3)CC2)n2nc(C)c(-c3ccccc3)c2n1?
EC50 [17]: 3.25 µM (inactive); AC50 [18]: 7.93 µM (active); EC50 [19]: 7.22 µM (active)

With COc1ccc(C(=O)N2CCN(c3cc(-c4ccccc4)nc4cc(-c5cccc(Cl)c5)nn34)CC2)cc1 as the molecule, how does the EC50 [17] read?
Its EC50 is 3.04 µM (active).

And the EC50 [19]?
The EC50 was 2.04 µM (active).

Which IC50 [1] does the source give for Cc1ccc(-n2nc3c(c2NC(=O)/C=C\c2ccc4c(c2)OCO4)CSC3)cc1 here?
Its IC50 is 6.06 µM (active).

And the IC50 [2]?
The IC50 was 20.4 µM (active).
